Eight compounds from US8017606B2, “Quinoline derivatives as antibacterial agents” (Janssen Pharmaceutica NV, priority 2005, dated 2011) can be followed below.

Molecules are shown by their SMILES. In brackets after ≈: the same amount, converted by molar mass.

What all share (assay): Microtitre plate assay, IC90 determination
What all share (assay type): cell-based

In assay [1] the test system is Bacillus subtilis (ATCC43639). To be noted: 90% inhibitory concentration for bacterial growth, 37° C., resazurin fluorescence, read-out: IC90 (μg/ml) BSU 43639. Here is the method: (§1) The bacteria used in this study were grown overnight in flasks containing 100 ml Mueller-Hinton Broth (Becton Dickinson—cat. no. 275730) in sterile de-ionized water, with shaking, at 37° C. Stocks (0.5 ml/tube) were stored at −70° C. until use. Bacteria titrations were performed in microtiter plates and colony forming units (CFUs) were determined. In general, an inoculum level of approximately 100 CFUs was used for susceptibility testing.
(§2) Anti Bacterial Susceptibility Testing: IC90 Determination
(§3) Flat-bottom, sterile 96-well plastic microtiter plates were filled with 180 μl of sterile deionized water, supplemented with 0.25% BSA. Subsequently, stock solutions (7.8×final test concentration) of compounds were added in 45 μl volumes in column 2 Serial five-fold dilutions (45 μl in 180 μl) were made directly in the microtiter plates from column 2 to reach column 11. Untreated control samples with (column 1) and without (column 12) inoculum were included in each microtiter plate. Depending on the bacteria type, approximately 10 to 60 CFU per well of bacteria inoculum (100 TCID50), in a volume of 100 μl in 2.8× Mueller-Hinton broth medium, was added to the rows A to H, except column 12. The same volume of broth medium without inoculum was added to column 12 in row A to H. The cultures were incubated at 37° C. for 24 hours under a normal atmosphere (incubator with open air valve and continuous ventilation). At the end of incubation, one day after inoculation, the bacterial growth was quantitated fluorometrically. Therefore resazurin (0.6 mg/ml) was added in a volume of 20 μl to all wells […], and the plates were re-incubated overnight. A change in colour from blue to pink indicated the growth of bacteria.
(§4) The fluorescence was read in a computer-controlled fluorometer (Cytofluor Biosearch) at an excitation wavelength of 530 nm and an emission wavelength of 590 nm. The % growth inhibition achieved by the compounds was calculated according to standard methods. The IC90 (expressed in μg/ml) was defined as the 90% inhibitory concentration for bacterial growth.
A general note: Alamar Blue is a resazurin reagent that responds to reducing activity.

The test system of assay [2] is Enterococcus faecalis (ATCC29212). The following applies: 90% inhibitory concentration for bacterial growth, 37° C., resazurin fluorescence, read-out: IC90 (μg/ml) EFA 29212. Here is the method: as §1, §2, §3, §4
Assay [3] relates to Listeria monocytogenes (ATCC49594). To be noted: 90% inhibitory concentration for bacterial growth, 37° C., resazurin fluorescence, read-out: IC90 (μg/ml) LMO 49594. As for the experimental part:
as §1, §2, §3, §4

The subject of assay [4] is Pseudomonas aeruginosa (ATCC27853). To be noted: 90% inhibitory concentration for bacterial growth, 37° C., resazurin fluorescence, read-out: IC90 (μg/ml) PAE 27853. As for the experimental part:
as §1, §2, §3, §4

Assay [5] deals with Staphylococcus aureus (ATCC25923). The following applies: 90% inhibitory concentration for bacterial growth, 37° C., resazurin fluorescence, read-out: IC90 (μg/ml) STA 25923. Here is the method:
as §1, §2, §3, §4

Assay [6] relates to Staphylococcus aureus (ATCC29213). The following applies: 90% inhibitory concentration for bacterial growth, 37° C., resazurin fluorescence, read-out: IC90 (μg/ml) STA 29213. Here is the method: as §1, §2, §3, §4
Assay [7] relates to Streptococcus pneumoniae (ATCC6305). To be noted: 90% inhibitory concentration for bacterial growth, 37° C., resazurin fluorescence, read-out: IC90 (μg/ml) SPN 6305. Here is the method: as §1, §2, §3, §4
The test system of assay [8] is Streptococcus pyogens (ATCC8668). The following applies: 90% inhibitory concentration for bacterial growth, 37° C., resazurin fluorescence, read-out: IC90 (μg/ml) SPY 8668. As for the experimental part: as §1, §2, §3, §4
In assay [9] the test system is methicilline resistant Staphylococcus aureus (MRSA) (a clinical isolate from the University of Antwerp). To be noted: 90% inhibitory concentration for bacterial growth, 37° C., resazurin fluorescence, read-out: IC90 (μg/ml) STA RMETHIC. Here is the method: as §1, §2, §3, §4
In assay [10] the test system is Enterococcus faecalis (ATCC14506). To be noted: 90% inhibitory concentration for bacterial growth, 37° C., resazurin fluorescence, read-out: IC90 (μg/ml) EFA 14506. Here is the method: as §1, §2, §3, §4
Assay [11] has as its system Streptococcus mutans (ATCC33402). To be noted: 90% inhibitory concentration for bacterial growth, 37° C., resazurin fluorescence, read-out: IC90 (μg/ml) SMU 33402. As for the experimental part: as §1, §2, §3, §4

In the case of `CN(C)CCC(O)(c1ccc2nc(-c3cccnc3)cc(-c3ccccc3)c2c1)c1ccco1` (stereo not drawn) [Compound 44], the IC90 in assay [1], in assay [2], in [3], in assay [4], in assay [5] and in assay [6] was 11.3 µg/mL (≈ 25.1 µM) throughout. Moreover, the IC90 in assay [7], in assay [8] and in assay [9] was 11.3 µg/mL (≈ 25.1 µM) each time.
Take `CN(C)CCC(O)(c1cc(F)cc(F)c1)c1cccc2nc(N(C)C)c(-c3ccccc3)cc12` (stereo not drawn) [Compound 45]: the IC90 in assay [1] turned out to be 9.2 µg/mL (≈ 19.9 µM); in [10], 10.3 µg/mL (≈ 22.3 µM); in assay [2], 11.6 µg/mL (≈ 25.1 µM); in assay [3], 11.6 µg/mL (≈ 25.1 µM); in assay [4], 11.6 µg/mL (≈ 25.1 µM); in [5] it was 10.3 µg/mL (≈ 22.3 µM). Also, the IC90 in assay [6] was found to be 9.2 µg/mL (≈ 19.9 µM); in assay [11] it was 9.2 µg/mL (≈ 19.9 µM); in assay [7], 11.6 µg/mL (≈ 25.1 µM); in [8] it was 9.2 µg/mL (≈ 19.9 µM); in [9], 46.2 µg/mL (≈ 100 µM).
With `CN(C)CCC(O)(c1ccccc1)c1ccc2nc(N(C)C)cc(-c3ccccc3)c2c1` (stereo not drawn) [Compound 47], the IC90 in [1], in assay [2], in assay [3], in assay [4], in assay [5] and in assay [6] was 10.7 µg/mL (≈ 25.1 µM) each time. In addition, the IC90 in [7], in [8] and in assay [9] was 10.7 µg/mL (≈ 25.1 µM) each time.
Consider `CC(=O)c1ccc(N2CCN(c3nc4c(C(O)(CCN(C)C)c5ccccc5)cc(Br)cc4cc3Cc3ccccc3)CC2)cc1` (stereo not drawn) [Compound 54], for which the IC90 in [2], in [4], in [6], in assay [11], in assay [7] and in [8] was 17 µg/mL (≈ 25.1 µM) each time.
As to `COc1nc2c(C(O)(CCN(C)C)c3cc(F)cc(F)c3)cc(-c3cccnc3)cc2cc1-c1ccccc1` (stereo not drawn) [Compound 64], the IC90 in assay [1] was 8.3 µg/mL (≈ 15.8 µM); in assay [10], 10.5 µg/mL (≈ 20 µM); in [2], 13.2 µg/mL (≈ 25.1 µM); in [3], 13.2 µg/mL (≈ 25.1 µM); in assay [4], 13.2 µg/mL (≈ 25.1 µM); in assay [5], 6.6 µg/mL (≈ 12.6 µM). Besides, the IC90 in assay [6] turned out to be 8.3 µg/mL (≈ 15.8 µM); in assay [11] it was 2.1 µg/mL (≈ 4 µM); in assay [7] it was 10.5 µg/mL (≈ 20 µM); in assay [8], 2.1 µg/mL (≈ 4 µM); in [9], 11.8 µg/mL (≈ 22.5 µM).
Turning to `CN(C)CCC(O)(c1ccccc1)c1cc(-c2cccnc2)cc2cc(-c3ccccc3)c(-c3cccnc3)nc12` (stereo not drawn) [Compound 65], the IC90 in assay [1], in assay [2], in assay [3], in assay [4], in [5] and in assay [6] was 13.5 µg/mL (≈ 25.2 µM) each time. The IC90 in assay [11], in [7], in assay [8] and in [9] was 13.5 µg/mL (≈ 25.2 µM) in each case.
Turning to `COc1nc2c(C(O)(CCN(C)C)c3cccs3)cc(-c3cccnc3)cc2cc1Cc1ccccc1` (stereo not drawn) [Compound 67], the IC90 in [1], in [2], in assay [3], in [4], in assay [5] and in assay [6] was 51 µg/mL (≈ 100 µM) in each case. In addition, the IC90 came to 22.8 µg/mL (≈ 44.7 µM) in assay [7], 51 µg/mL (≈ 100 µM) in assay [8] and 51 µg/mL (≈ 100 µM) in assay [9].
With `COc1nc2ccccc2c(CC(O)(CCN(C)C)c2cccc3ccccc23)c1Cc1ccccc1` (stereo not drawn) [Compound 70], the IC90 was determined as 12.3 µg/mL (≈ 25.1 µM) in assay [1]; 49.1 µg/mL (≈ 100 µM) in assay [2]; 39 µg/mL (≈ 79.5 µM) in assay [3]; 9.8 µg/mL (≈ 20 µM) in assay [4]; 12.3 µg/mL (≈ 25.1 µM) in [5]; 12.3 µg/mL (≈ 25.1 µM) in assay [6]. For the same compound, the IC90 was 9.8 µg/mL (≈ 20 µM) in [11], 12.3 µg/mL (≈ 25.1 µM) in [7], 9.8 µg/mL (≈ 20 µM) in [8] and 12.3 µg/mL (≈ 25.1 µM) in [9].
